These results are taken from patent publication US20250195498A1, “INHIBITOR OF CELLULAR PURINE NUCLEOTIDE SALVAGE PATHWAY ENZYME FOR USE IN THE TREATMENT AND/OR PREVENTION OF HELICOBACTER PYLORI INFECTION AND/OR DISEASE ASSOCIATED WITH SUCH INFECTION AND PHARMACEUTICAL COMPOSITION COMPRISING THE SAME” (UNIWERSYTET WARSZAWSKI, priority 2022, published 2025).

Assay [1] deals with H. pylori strain M91 (MTZ + CLR resistant). Briefly: Growth curve method / MIC, resistant strain M91. The class given is cell-based, Helicobacter pylori. To be noted: Helicobacter pylori, strain M91, MTZ + CLR resistant. As for the experimental part: (§1) The representative PNP inhibitor from H. pylori included in this study was immucillin A. The experiment was conducted using the growth curve method (two-fold serial dilutions in liquid medium). The tested H. pylori strains were cultured in Petri dishes with BHI solid medium supplemented with 10% FBS and 1% H. pylori Selective Supplement antibiotic kit, in anaerostats under microaerophilic conditions (5% 02, 10% CO2, 85% N2) at 37° C. for 3 days. Liquid culture of H. pylori was conducted overnight with shaking at 37° C. under microaerophilic conditions in BHI medium supplemented with 10% FBS and 1% H. pylori Selective Supplement antibiotic kit. Subsequently, for the essential experiment of determining the minimum inhibitory concentration (MIC), double strengthened liquid BHI medium was prepared, that is, supplemented with 20% FBS and a 2% set of H. pylori Selective Supplement antibiotics.
(§2) Bacterial proliferation inhibition experiments were carried out in 24-deep-well 2 ml flat-bottomed plates at a solution volume per well of 0.5 ml. In a single well, double strengthened (relative to the concentration planned for testing) solutions of the test inhibitor and double strengthened liquid BHI medium inoculated with H. pylori (10^4-10^5 CFU/ml in the final volume in the well, corresponding to the optical density of the culture OD600=0.05) were mixed together in a 1:1 ratio.
(§3) Kanamycin at a concentration of 25 μg/ml (Irie et al., 1997) was used as a positive control, while Mili-Q deionized water and BHI medium not inoculated with bacteria were used as negative controls. Plates were shaken at 37° C., under microaerophilic conditions. […] After 24 hours, the OD600 of samples containing the negative control, i.e. with Mili-Q deionized water, was about 1.2-1.4, corresponding to a bacterial concentration of about […].
(§4) In addition, the method proposed by Knezevic et al. (2018) was used to check whether the observed OD600 was from live bacterial cells. For this purpose, an equal volume of Christensen's double strength urea broth (that is, containing twice the concentration of all components) was added to the wells after incubation, and the plates were additionally incubated for 4 hours in an oxygen atmosphere at 37° C. During incubation, in wells with urease produced by live bacteria, urea is converted to ammonia and carbon dioxide, changing the pH of the solution and thus the colour of the phenol red indicator contained in the medium (from orange to purple).
(§5) All experiments were performed in triplicate.
(§6) The antibacterial activity of two compounds, mefloquine (in the form of hydrochloride) and quinine, described in the literature as potent in vitro inhibitors of the PNP enzyme from Plasmodium falciparum (Dziekan et al., 2019), was tested. Using a two-fold serial dilution method in liquid medium (as described in Example 3), the MIC values for mefloquine and quinine were determined against clinical H. pylori strains resistant to MTZ, CLR and MTZ+CLR (M26, M91, M92 and M93), as well as the reference H. pylori strain 26695. Four clinical H. pylori strains isolated from adults, from primary infections (the subjects had never previously been treated against H. pylori infection) were tested. These strains come from the collection of the Department of Microbiology of the Medical University of Wroclaw and were obtained due to collaboration with Prof. Grażyna Gościniak, MD, PhD. The tested compounds belong to organic substances and are soluble in DMSO. The maximum tested concentration of quinine in H. pylori culture was 0.56 mM, and that of mefloquine was 2.25 mM. […] On each occasion, the effect of DMSO alone on the growth of the H. pylori strains tested was also checked. […] Kanamycin was used as a positive control and Mili-Q deionised water as a negative control. All experiments were carried out in triplicate. […]

The test system of assay [2] is H. pylori strain M92 (CLR resistant). The experiment in a line: Growth curve method / MIC, resistant strain M92. Conditions: Helicobacter pylori, strain M92, CLR resistant. The class given is cell-based, Helicobacter pylori. As for the experimental part: as §1, §2, §3, §4, §5, §6

“And” between values parts separate entries of the source, which are not always exact repeats. Identical values can stand only once. Like-named read-outs stand apart in the source and are kept apart here.

Consider `Cc1ncc(CO)c(C=O)c1O.Cl` [PI-h, pyridoxal hydrochloride], for which the MIC in assay [1] (read-out: MIC) was 255 µg/mL; in assay [1] (read-out: MIC (Table 7)) it was 1.25 µM; in assay [2] (read-out: MIC), 509 µg/mL and 2500 µM; in assay [2] (read-out: MIC (Table 7)), 2.5 µM.

As to `Cc1ncc(COP(=O)(O)O)c(C=O)c1O` [PLP, pyridoxal 5′-phosphate], the MIC in assay [1] (read-out: MIC) was in the range of 309 to 618 µg/mL; in assay [1] (read-out: MIC (Table 7)) it was 1.25 to 2.5 µM; in assay [2] (read-out: MIC), 309 to 618 µg/mL; in assay [2] (read-out: MIC (Table 7)), 1.25 to 2.5 µM.

A word on the MIC: it is the least concentration at which growth counts as inhibited.
